Values of other authors in patent publication US9642862B2, “Methods for treating chronic or unresolvable pain and/or increasing the pain threshold in a subject and pharmaceutical compositions for use therein” (White Mountain Pharma, Inc., priority 2010, dated 2017).

Tests used:
[1] = test system: rats; conditions: formalin test, treatment with testosterone
[2] = test system: chronic pain subjects; conditions: four subjects, adjunctive to primary opioid therapy, anecdotal
[3] = test system: female-to-male transsexuals; conditions: doses at or above the male reference range
[4] = test system: ovariectomized female rats

With `C[C@]12CC[C@H]3[C@@H](CCC4=CC(=O)CC[C@@]43C)[C@@H]1CC[C@@H]2O` [testosterone] as the compound, how does the pain responses [1] read?
The pain responses was “decreased”.

And the quality of life [2]?
The quality of life was “improved”.

And the side effects [3]?
The side effects was “develop hirsutism and male-like increased risk for cardiovascular disease and diabetes”.

Which “spinal cord enkephalin transcription” value [4] does the source give for estrogen here?
The value was “increase”.
